This is an account of results in publication doi:10.1101/2021.02.22.432362v1 (biorxiv, 2021).

The target of one experiment is BRD8(1) (Homo sapiens, UniProt Q9H0E9). Briefly: AlphaScreen biotin-tracer competition. The class given is binding. On the technique in general: In Alpha technology, singlet oxygen from a donor bead excites a nearby acceptor bead.
The target of experiment [1] is BRD9 (Homo sapiens, UniProt Q9H8M2). Put plainly: AlphaScreen tracer competition. The class given is binding.
Target sequence in this assay (Q9H8M2 134-239 limits assumed): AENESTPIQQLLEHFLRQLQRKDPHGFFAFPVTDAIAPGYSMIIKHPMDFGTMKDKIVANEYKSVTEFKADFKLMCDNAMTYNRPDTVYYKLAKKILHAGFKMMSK
A further experiment has as its target FALZ (Homo sapiens, UniProt Q12830). Briefly: biochemical. To be noted: read-out: % Ctrl (1 uM).
The target in another experiment is SMARCA2 (Homo sapiens, UniProt P51531). Briefly: biochemical. The note with it: read-out: % Ctrl (1 uM).
Another experiment addresses CECR2 (Homo sapiens, UniProt Q9BXF3). Briefly: biochemical. To be noted: read-out: % Ctrl (1 uM).
Another experiment has as its target EP300 (Homo sapiens, UniProt Q09472). Put plainly: biochemical. The note with it: read-out: % Ctrl (1 uM).
The next experiment addresses BRD1 (Homo sapiens, UniProt O95696). Briefly: biochemical. The note with it: read-out: % Ctrl (1 uM).
A further experiment addresses BAZ2B (Homo sapiens, UniProt Q9UIF8). Briefly: biochemical. To be noted: read-out: % Ctrl (1 uM).
Another experiment deals with BRD7 (Homo sapiens, UniProt Q9NPI1). Briefly: biochemical. To be noted: read-out: % Ctrl (1 uM).
In a further experiment the target is BRD3(2) (Homo sapiens, UniProt Q15059). Put plainly: biochemical. The note with it: read-out: % Ctrl (1 uM).
The next experiment has as its target SMARCA4 (Homo sapiens, UniProt P51532). Put plainly: biochemical. To be noted: read-out: % Ctrl (1 uM).
A further experiment addresses ATAD2A (Homo sapiens, UniProt Q6PL18). Put plainly: biochemical. To be noted: read-out: % Ctrl (1 uM).
The target of the next experiment is WDR9(2) (Homo sapiens, UniProt Q9NSI6). Briefly: biochemical. The note with it: read-out: % Ctrl (1 uM).
Another experiment addresses BRD3(1) (Homo sapiens, UniProt Q15059). Briefly: biochemical. To be noted: read-out: % Ctrl (1 uM).
The next experiment addresses BAZ2A (Homo sapiens, UniProt Q9UIF9). Briefly: biochemical. To be noted: read-out: % Ctrl (1 uM).
A further experiment has as its target GCN5L2 (Homo sapiens, UniProt Q92830). Put plainly: biochemical. To be noted: read-out: % Ctrl (1 uM).
For the next experiment, the target named is PCAF (Homo sapiens, UniProt Q92831). Put plainly: biochemical. The note with it: read-out: % Ctrl (1 uM).
The next experiment has as its target TRIM24(PHD,Bromo.) (Homo sapiens, UniProt O15164). Briefly: biochemical. The note with it: read-out: % Ctrl (1 uM).
In a further experiment the target is BRDT(1) (Homo sapiens, UniProt Q58F21). Briefly: biochemical. The note with it: read-out: % Ctrl (1 uM).
Another experiment has as its target BRD2(2) (Homo sapiens, UniProt P25440). Put plainly: biochemical. To be noted: read-out: % Ctrl (1 uM).
In the next experiment the target is BRD4(1) (Homo sapiens, UniProt O60885). Put plainly: biochemical. To be noted: read-out: % Ctrl (1 uM).
The next experiment addresses CREBBP (Homo sapiens, UniProt Q92793). Put plainly: biochemical. The note with it: read-out: % Ctrl (1 uM).
A further experiment concerns the target TAF1(2) (Homo sapiens, UniProt P21675). Put plainly: biochemical. To be noted: read-out: % Ctrl (1 uM).
The target in a further experiment is TAF1L(2) (Homo sapiens, UniProt Q8IZX4). Briefly: biochemical. The note with it: read-out: % Ctrl (1 uM).
Experiment [2] concerns the target BRD9 (Homo sapiens, UniProt Q9H8M2). Put plainly: biochemical. The note with it: read-out: % Ctrl (1 uM).
Target sequence in this assay (Q9H8M2 whole entry): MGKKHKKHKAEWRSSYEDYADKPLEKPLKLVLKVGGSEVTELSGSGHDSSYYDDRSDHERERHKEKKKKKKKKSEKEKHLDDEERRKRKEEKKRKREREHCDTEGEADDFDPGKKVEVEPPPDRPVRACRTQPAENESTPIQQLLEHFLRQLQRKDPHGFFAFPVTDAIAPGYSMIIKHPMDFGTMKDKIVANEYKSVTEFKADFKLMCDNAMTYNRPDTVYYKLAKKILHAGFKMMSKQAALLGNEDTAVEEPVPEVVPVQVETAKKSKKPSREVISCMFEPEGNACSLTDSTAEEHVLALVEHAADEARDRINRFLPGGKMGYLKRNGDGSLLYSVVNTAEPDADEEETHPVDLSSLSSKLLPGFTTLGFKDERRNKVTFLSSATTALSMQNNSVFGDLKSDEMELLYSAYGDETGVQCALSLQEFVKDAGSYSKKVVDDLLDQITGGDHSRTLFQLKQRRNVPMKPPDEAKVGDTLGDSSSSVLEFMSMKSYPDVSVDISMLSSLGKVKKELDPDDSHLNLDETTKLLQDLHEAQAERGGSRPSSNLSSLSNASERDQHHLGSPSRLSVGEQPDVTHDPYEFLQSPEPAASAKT
The next experiment deals with PBRM1(5) (Homo sapiens, UniProt Q86U86). Briefly: biochemical. To be noted: read-out: % Ctrl (1 uM).
The target in a further experiment is ATAD2B (Homo sapiens, UniProt Q9ULI0). Put plainly: biochemical. To be noted: read-out: % Ctrl (1 uM).
Sequence of ATAD2B (Q9ULI0 whole entry): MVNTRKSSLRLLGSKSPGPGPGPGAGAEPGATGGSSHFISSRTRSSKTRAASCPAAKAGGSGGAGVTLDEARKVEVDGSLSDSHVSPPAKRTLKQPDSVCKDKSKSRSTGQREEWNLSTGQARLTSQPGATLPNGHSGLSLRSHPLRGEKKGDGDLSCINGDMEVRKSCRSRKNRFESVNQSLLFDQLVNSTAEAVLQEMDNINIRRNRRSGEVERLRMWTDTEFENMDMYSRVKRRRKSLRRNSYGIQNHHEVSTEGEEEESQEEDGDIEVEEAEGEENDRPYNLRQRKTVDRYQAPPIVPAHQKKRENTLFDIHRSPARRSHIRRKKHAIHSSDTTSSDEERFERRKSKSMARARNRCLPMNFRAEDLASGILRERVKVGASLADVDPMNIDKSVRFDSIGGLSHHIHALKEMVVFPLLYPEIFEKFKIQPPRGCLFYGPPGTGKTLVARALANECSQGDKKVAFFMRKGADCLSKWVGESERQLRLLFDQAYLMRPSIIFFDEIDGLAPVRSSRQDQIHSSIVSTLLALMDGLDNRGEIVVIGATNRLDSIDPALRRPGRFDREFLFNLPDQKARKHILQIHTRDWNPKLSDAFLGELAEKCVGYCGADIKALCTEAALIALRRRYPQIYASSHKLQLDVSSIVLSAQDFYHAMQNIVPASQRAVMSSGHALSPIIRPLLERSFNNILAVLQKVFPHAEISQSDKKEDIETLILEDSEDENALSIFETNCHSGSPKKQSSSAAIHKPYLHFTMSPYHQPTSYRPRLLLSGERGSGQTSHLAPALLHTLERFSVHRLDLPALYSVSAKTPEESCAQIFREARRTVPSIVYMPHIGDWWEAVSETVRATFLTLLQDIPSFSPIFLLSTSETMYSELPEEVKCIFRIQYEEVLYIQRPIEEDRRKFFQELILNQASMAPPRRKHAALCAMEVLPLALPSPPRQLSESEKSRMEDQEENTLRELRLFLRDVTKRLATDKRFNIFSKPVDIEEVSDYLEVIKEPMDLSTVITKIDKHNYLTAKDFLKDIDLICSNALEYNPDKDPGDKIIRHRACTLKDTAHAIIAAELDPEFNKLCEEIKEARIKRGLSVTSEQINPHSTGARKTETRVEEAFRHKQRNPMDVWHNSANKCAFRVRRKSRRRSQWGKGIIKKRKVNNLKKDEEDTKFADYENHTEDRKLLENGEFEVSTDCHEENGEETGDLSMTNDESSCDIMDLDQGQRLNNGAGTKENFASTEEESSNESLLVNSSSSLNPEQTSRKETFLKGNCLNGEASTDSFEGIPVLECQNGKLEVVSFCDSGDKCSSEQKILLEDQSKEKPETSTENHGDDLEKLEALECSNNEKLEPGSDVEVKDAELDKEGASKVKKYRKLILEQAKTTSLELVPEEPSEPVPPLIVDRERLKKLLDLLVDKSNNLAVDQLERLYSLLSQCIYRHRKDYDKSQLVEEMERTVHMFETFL
Another experiment concerns the target BRPF1 (Homo sapiens, UniProt P55201). Put plainly: biochemical. The note with it: read-out: % Ctrl (1 uM).
For another experiment, the target named is BRD2(1) (Homo sapiens, UniProt P25440). Briefly: biochemical. The note with it: read-out: % Ctrl (1 uM).
Sequence of BRD2(1) (P25440 whole entry): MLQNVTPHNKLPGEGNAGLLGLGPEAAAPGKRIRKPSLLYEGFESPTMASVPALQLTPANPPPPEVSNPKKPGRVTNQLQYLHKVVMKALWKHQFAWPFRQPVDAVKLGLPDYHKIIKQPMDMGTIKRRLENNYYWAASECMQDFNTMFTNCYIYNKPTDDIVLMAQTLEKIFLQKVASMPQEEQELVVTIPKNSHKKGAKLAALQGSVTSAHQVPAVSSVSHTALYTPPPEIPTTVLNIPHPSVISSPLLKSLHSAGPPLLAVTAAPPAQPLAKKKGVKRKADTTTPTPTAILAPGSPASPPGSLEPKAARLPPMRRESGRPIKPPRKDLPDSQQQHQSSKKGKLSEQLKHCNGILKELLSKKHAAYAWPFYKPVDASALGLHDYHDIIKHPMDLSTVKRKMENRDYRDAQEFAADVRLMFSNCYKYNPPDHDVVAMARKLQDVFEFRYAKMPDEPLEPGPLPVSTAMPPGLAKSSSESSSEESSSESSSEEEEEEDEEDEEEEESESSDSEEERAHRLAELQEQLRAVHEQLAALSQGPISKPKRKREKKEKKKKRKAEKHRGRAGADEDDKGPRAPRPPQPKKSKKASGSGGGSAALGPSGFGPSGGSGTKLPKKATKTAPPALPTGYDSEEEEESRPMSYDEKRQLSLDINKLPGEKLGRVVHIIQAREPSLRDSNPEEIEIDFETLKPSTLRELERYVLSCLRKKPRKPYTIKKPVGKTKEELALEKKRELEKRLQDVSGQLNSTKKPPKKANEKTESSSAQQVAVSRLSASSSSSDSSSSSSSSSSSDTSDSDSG
In a further experiment the target is PBRM1(2) (Homo sapiens, UniProt Q86U86). Briefly: biochemical. The note with it: read-out: % Ctrl (1 uM).
For another experiment, the target named is Trim33(PHD,Bromo.) (Homo sapiens, UniProt Q9UPN9). Put plainly: biochemical. To be noted: read-out: % Ctrl (1 uM).
Sequence of Trim33(PHD,Bromo.) (Q9UPN9 whole entry): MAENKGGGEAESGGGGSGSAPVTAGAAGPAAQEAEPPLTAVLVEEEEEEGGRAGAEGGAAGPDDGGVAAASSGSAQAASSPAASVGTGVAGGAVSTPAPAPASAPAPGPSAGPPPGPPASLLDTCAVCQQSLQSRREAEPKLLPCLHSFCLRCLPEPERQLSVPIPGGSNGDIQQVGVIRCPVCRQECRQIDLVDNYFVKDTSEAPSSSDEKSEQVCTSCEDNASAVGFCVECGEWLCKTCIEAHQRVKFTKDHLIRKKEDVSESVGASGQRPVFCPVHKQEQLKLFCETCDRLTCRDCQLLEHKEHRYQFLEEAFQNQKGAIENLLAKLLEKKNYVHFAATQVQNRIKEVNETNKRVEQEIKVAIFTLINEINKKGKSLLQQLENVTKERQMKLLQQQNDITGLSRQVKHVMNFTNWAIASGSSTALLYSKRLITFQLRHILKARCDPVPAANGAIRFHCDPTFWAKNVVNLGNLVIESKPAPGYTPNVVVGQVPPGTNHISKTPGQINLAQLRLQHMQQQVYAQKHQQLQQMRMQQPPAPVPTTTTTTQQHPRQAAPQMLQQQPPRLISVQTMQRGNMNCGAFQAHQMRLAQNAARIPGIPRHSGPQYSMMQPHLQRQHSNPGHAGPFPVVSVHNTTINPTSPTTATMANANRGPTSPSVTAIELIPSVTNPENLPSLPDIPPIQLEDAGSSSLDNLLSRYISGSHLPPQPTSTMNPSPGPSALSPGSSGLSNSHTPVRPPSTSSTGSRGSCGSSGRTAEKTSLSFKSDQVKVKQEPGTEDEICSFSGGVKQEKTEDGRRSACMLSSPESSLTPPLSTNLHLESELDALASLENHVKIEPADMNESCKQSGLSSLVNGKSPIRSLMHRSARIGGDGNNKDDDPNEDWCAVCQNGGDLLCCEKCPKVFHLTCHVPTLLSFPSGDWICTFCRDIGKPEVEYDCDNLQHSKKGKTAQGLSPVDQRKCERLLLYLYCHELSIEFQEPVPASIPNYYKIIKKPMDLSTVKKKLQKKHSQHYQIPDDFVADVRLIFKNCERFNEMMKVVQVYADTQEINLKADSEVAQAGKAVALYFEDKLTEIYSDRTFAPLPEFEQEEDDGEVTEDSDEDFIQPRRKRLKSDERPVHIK
The target of another experiment is BRDT(2) (Homo sapiens, UniProt Q58F21). Put plainly: biochemical. The note with it: read-out: % Ctrl (1 uM).
In the next experiment the target is BRD4(2) (Homo sapiens, UniProt O60885). Put plainly: biochemical. To be noted: read-out: % Ctrl (1 uM).
The target in a further experiment is BRPF3 (Homo sapiens, UniProt Q9ULD4). Put plainly: biochemical. The note with it: read-out: % Ctrl (1 uM).

Where two headings read alike, the source gives them in different places.

Sequence of BRD8(1) (Q9H0E9 706-811 limits assumed): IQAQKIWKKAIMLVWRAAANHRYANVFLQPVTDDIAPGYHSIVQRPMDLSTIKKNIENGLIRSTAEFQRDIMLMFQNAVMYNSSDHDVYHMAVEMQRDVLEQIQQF
Sequence of BRD2(2) (P25440 whole entry): as the sequence (P25440 whole entry) above

What is called IC50 is the concentration needed to halve the response being measured. Read a low IC50 as greater potency in that assay. Consider `COc1cc(CN(C)C)cc(OC)c1-c1cn(C)c(=O)c2cnccc12` [compound 3], for which the 50% inhibitory concentration (IC50) at BRD8(1) was 85 nM; on BRD9 [1], > 10000 nM.

In the case of `COc1cc(-c2cn(C)c(=O)c3cnccc23)cc(OC)c1CN(C)C` [BI-7273], the half-inhibitory concentration (IC50) entry at BRD8(1) (tracer: compound 1-biotin) is “less potently by I-BRD9 and BI-7273”.

Consider `COc1ccc2ccccc2c1-c1cn(C)c(=O)c2cnccc12` [compound 2], for which, at BRD9 [1], the concentration for half-maximal inhibition (IC50) was > 10000 nM.

In the case of `COc1cc(CN2CC(N)C2)cc(OC)c1-c1cn(C)c(=O)c2cc(F)ccc12` [DN02], the remaining activity at 1 µM is 82% at FALZ; 74% on SMARCA2; 74% on CECR2; 8.4% on EP300; 89% on BRD1; 84% at BAZ2B. The remaining activity at 1 µM was 91% at BRD7; 75% at BRD3(2); 71% at SMARCA4; 100% at ATAD2A; 88% on WDR9(2); 76% at BRD3(1). Further, the remaining activity at 1 µM on BAZ2A came out at 69%; on GCN5L2, 86%; at PCAF it was 69%; at TRIM24(PHD,Bromo.), 90%; at BRDT(1) it was 88%; on BRD2(2), 89%. Also, the remaining activity at 1 µM stood at 88% at BRD4(1); 9.2% at CREBBP; 79% at TAF1(2); 91% at TAF1L(2); 80% on BRD9 [2]; 87% at PBRM1(5). The remaining activity at 1 µM was found to be 79% on ATAD2B; 65% on BRPF1; 72% on BRD2(1); 85% on PBRM1(2); 92% on Trim33(PHD,Bromo.); 88% on BRDT(2). The remaining activity at 1 µM at BRD4(2) and at BRPF3 was 94% throughout.

Consider `COc1cc(-c2cn(C)c(=O)c3cnccc23)c(OC)cc1CN(C)C` [BI-9564], for which the half-maximal inhibitory concentration (IC50) at BRD8(1) (tracer: compound 1-biotin) stood at 970 nM.
